PMC7113684 (Antiviral Research, 2017)
Counter-ions that a name gives are not always drawn.

Tests used:
SARS-CoV 3CL^pro = SARS-CoV 3CL^pro (Severe acute respiratory syndrome coronavirus, UniProt P0C6X7); conditions: cited from earlier work
Huh-7 cells = conditions: human
in vitro = conditions: human

Row | SMILES | activity against SARS-CoV 3CL^pro (SARS-CoV 3CL^pro) | decrease of viability of mock cells (Huh-7 cells) | CC50 (in vitro)
1 | CCOC(=O)/C=C/[C@H](C[C@@H]1CCNC1=O)NC(=O)[C@@H](CC(=O)[C@@H](NC(=O)c1cc(C)on1)C(C)C)Cc1ccc(F)cc1 [AG7088] | inactive | – | –
2 | Nc1ccn([C@@H]2O[C@H](CO)[C@@H](O)C2(F)F)c(=O)n1 [GEM, Gemcitabine hydrochloride] | – | ≥ 20% | > 100 µM
